Assay results as given in ChEMBL document CHEMBL3044692, “Biological activity of alpha-thujaplicin, the isomer of hinokitiol” (Biol Pharm Bull, 2004).
Values after ≈ are worked out from the molar mass of the structure shown. Active and inactive are the calls of the source. No cut-off for these calls is given here.

Key:
Tyrophagus putrescentiae = test: Acaricidal activity against Tyrophagus putrescentiae at high concentration; format: functional, organism-based
Dermatophagoides farinae [1] = test: Acaricidal activity against Dermatophagoides farinae after 24 hr; format: functional
Reticulitermes speratus [2] = test: Insecticidal activity against Reticulitermes speratus at 48 hr; format: functional
Dermatophagoides farinae [3] = test: Acaricidal activity against Dermatophagoides farinae assessed as mortality at 0.01 g/m'2 after 24 hr relative to control; format: functional
Dermatophagoides farinae [4] = test: Acaricidal activity against Dermatophagoides farinae assessed as mortality at 0.1 g/m'2 after 24 hr relative to control; format: functional
Dermatophagoides farinae [5] = test: Acaricidal activity against Dermatophagoides farinae assessed as mortality at 0.5 g/m'2 after 24 hr relative to control; format: functional
Dermatophagoides farinae [6] = test: Acaricidal activity against Dermatophagoides farinae assessed as mortality at 1 g/m'2 after 24 hr relative to control; format: functional
Reticulitermes speratus [7] = test: Insecticidal activity against Reticulitermes speratus assessed as mortality at 0.01 g/m'2 at 48 hr relative to control; format: functional
Reticulitermes speratus [8] = test: Insecticidal activity against Reticulitermes speratus assessed as mortality at 0.02 g/m'2 at 48 hr relative to control; format: functional
Reticulitermes speratus [9] = test: Insecticidal activity against Reticulitermes speratus assessed as mortality at 0.01 g/m'2 at 24 hr relative to control; format: functional
Reticulitermes speratus [10] = test: Insecticidal activity against Reticulitermes speratus assessed as mortality at 0.02 g/m'2 at 24 hr relative to control; format: functional
Reticulitermes speratus [11] = test: Insecticidal activity against Reticulitermes speratus assessed as mortality at 0.03 g/m'2 at 48 hr relative to control; format: functional
Reticulitermes speratus [12] = test: Insecticidal activity against Reticulitermes speratus assessed as mortality at 0.03 g/m'2 at 24 hr relative to control; format: functional
Reticulitermes speratus [13] = test: Insecticidal activity against Reticulitermes speratus assessed as mortality at 0.04 g/m'2 at 24 hr relative to control; format: functional
Reticulitermes speratus [14] = test: Insecticidal activity against Reticulitermes speratus assessed as mortality at 0.04 g/m'2 at 48 hr relative to control; format: functional
Reticulitermes speratus [15] = test: Insecticidal activity against Reticulitermes speratus assessed as mortality at 0.05 g/m'2 at 48 hr relative to control; format: functional
Reticulitermes speratus [16] = test: Insecticidal activity against Reticulitermes speratus assessed as mortality at 0.1 g/m'2 at 48 hr relative to control; format: functional
Reticulitermes speratus [17] = test: Insecticidal activity against Reticulitermes speratus assessed as mortality at 0.05 g/m'2 at 24 hr relative to control; format: functional
Reticulitermes speratus [18] = test: Insecticidal activity against Reticulitermes speratus assessed as mortality at 0.1 g/m'2 at 24 hr relative to control; format: functional
Legionella pneumophila [19] = test: Antibacterial activity against Legionella pneumophila SG 3 after 7 days by agar dilution method; format: functional; settings: SG 3, 168 h
Legionella pneumophila [20] = test: Antibacterial activity against Legionella pneumophila SG 1 after 7 days by agar dilution method; format: functional; settings: SG 1, 168 h
[21] = system: Colletotrichum orbiculare; test: Antifungal activity against Colletotrichum orbiculare MAFF 306518 after 15 days by agar dilution method; format: functional; settings: MAFF 306518, 360 h
Colletotrichum lagenaria = test: Antifungal activity against Colletotrichum lagenaria after 15 days by agar dilution method; format: functional; settings: 360 h
Phomopsis obscurans = test: Antifungal activity against Phomopsis obscurans MAFF 744018 after 15 days by agar dilution method; format: functional; settings: Paraphomopsis obscurans, MAFF 744018, 360 h
Botrytis cinerea = test: Antifungal activity against Botryotinia fuckeliana IFO 30915 after 15 days by agar dilution method; format: functional; settings: IFO 30915, 360 h
Fusarium solani = test: Antifungal activity against Fusarium solani IFO 9955 after 15 days by agar dilution method; format: functional; settings: IFO 9955, 360 h
Pythium aphanidermatum = test: Antifungal activity against Pythium aphanidermatum IFO 32440 after 15 days by agar dilution method; format: functional; settings: IFO 32440, 360 h
Thanatephorus cucumeris = test: Antifungal activity against Thanatephorus cucumeris IFO 30455 after 15 days by agar dilution method; format: functional; settings: IFO 30455, 360 h
[22] = Toxicity against ip dosed Mus musculus Slc:ddY (mouse) after 8 days; format: organism-based; settings: in vivo
P388 [23] = test: Growth inhibition of Mus musculus (mouse) P388 cells at >1.25 ug/ml after 48 hr by MTT assay; format: functional
P388 [24] = test: Growth inhibition of Mus musculus (mouse) P388 cells at 0.63 ug/ml after 48 hr by MTT assay; format: functional; settings: P388, 48 h, read-out: GI
P388 [25] = test: Growth inhibition of Mus musculus (mouse) P388 cells at 0.63 ug/ml after 24 hr by MTT assay; format: functional; settings: P388, 24 h, read-out: GI
P388 [26] = test: Growth inhibition of Mus musculus (mouse) P388 cells at >1.25 ug/ml after 24 hr by MTT assay; format: functional
P388 [27] = test: Growth inhibition of Mus musculus (mouse) P388 cells after 24 to 48 hr by MTT assay; format: functional, cell-based
Reticulitermes speratus [28] = test: Insecticidal activity against Reticulitermes speratus assessed as mortality at 0.00025 g/m'2 at 48 hr relative to control; format: functional
Reticulitermes speratus [29] = test: Insecticidal activity against Reticulitermes speratus assessed as mortality at 0.00025 g/m'2 at 24 hr relative to control; format: functional
Reticulitermes speratus [30] = test: Insecticidal activity against Reticulitermes speratus assessed as mortality at 0.00001 g/m'2 at 24 hr relative to control; format: functional
Reticulitermes speratus [31] = test: Insecticidal activity against Reticulitermes speratus assessed as mortality at 0.00005 g/m'2 at 24 hr relative to control; format: functional
Reticulitermes speratus [32] = test: Insecticidal activity against Reticulitermes speratus assessed as mortality at 0.00005 g/m'2 at 48 hr relative to control; format: functional
Reticulitermes speratus [33] = test: Insecticidal activity against Reticulitermes speratus assessed as mortality at 0.00010 g/m'2 at 48 hr relative to control; format: functional
Reticulitermes speratus [34] = test: Insecticidal activity against Reticulitermes speratus assessed as mortality at 0.00010 g/m'2 at 24 hr relative to control; format: functional
Reticulitermes speratus [35] = test: Insecticidal activity against Reticulitermes speratus assessed as mortality at 0.00050 g/m'2 at 48 hr relative to control; format: functional
Reticulitermes speratus [36] = test: Insecticidal activity against Reticulitermes speratus assessed as mortality at 0.00050 g/m'2 at 24 hr relative to control; format: functional
Dermatophagoides farinae [37] = test: Acaricidal activity against Dermatophagoides farinae assessed as mortality at 0.2 g/m'2 after 24 hr relative to control; format: functional
Dermatophagoides farinae [38] = test: Acaricidal activity against Dermatophagoides farinae assessed as mortality at 0.02 g/m'2 after 24 hr relative to control; format: functional
Dermatophagoides farinae [39] = test: Acaricidal activity against Dermatophagoides farinae assessed as mortality at 0.05 g/m'2 after 24 hr relative to control; format: functional
[40] = Cytotoxicity against Homo sapiens (human) KATO III; format: functional
HL-60 = test: Cytotoxicity against Homo sapiens (human) HL60; format: functional, cell-based
K562 = test: Cytotoxicity against Homo sapiens (human) K562; format: functional, cell-based
[41] = Cytotoxicity against Mus musculus (mouse) RL male 1; format: functional
[42] = Cytotoxicity against Mus musculus (mouse) MH134; format: functional
MDCK = test: Cytotoxicity against MDCK cells; format: functional; settings: Canis lupus familiaris
Colon 26 = test: Cytotoxicity against Mus musculus (mouse) colon 26 cells; format: functional

CC(C)c1ccccc(=O)c1O [ALPHA-THUJAPLICIN]
Activity (Tyrophagus putrescentiae): inactive
LC50 (Dermatophagoides farinae [1]): 0.66 g/m2
LC50 (Reticulitermes speratus [2]): 0.02 g/m2
mortality (Dermatophagoides farinae [3]): 1.1%
mortality (Dermatophagoides farinae [4]): 0%
mortality (Dermatophagoides farinae [5]): 38.4%
mortality (Dermatophagoides farinae [6]): 69.5%
mortality (Reticulitermes speratus [7]): 0%
mortality (Reticulitermes speratus [8]): 0%
mortality (Reticulitermes speratus [9]): 0%
mortality (Reticulitermes speratus [10]): 0%
mortality (Reticulitermes speratus [11]): 100%
mortality (Reticulitermes speratus [12]): 0%
mortality (Reticulitermes speratus [13]): 13.3%
mortality (Reticulitermes speratus [14]): 100%
mortality (Reticulitermes speratus [15]): 100%
mortality (Reticulitermes speratus [16]): 100%
mortality (Reticulitermes speratus [17]): 93.3%
mortality (Reticulitermes speratus [18]): 100%
MIC (Legionella pneumophila [19]): 50 µg/mL (≈ 304 µM)
MIC (Legionella pneumophila [20]): 12.5 µg/mL (≈ 76.1 µM)
MIC [21]: 12 µg/mL (≈ 73.1 µM)
MIC (Colletotrichum lagenaria): 12 µg/mL (≈ 73.1 µM)
MIC (Phomopsis obscurans): 12 µg/mL (≈ 73.1 µM)
MIC (Botrytis cinerea): 25 µg/mL (≈ 152 µM)
MIC (Fusarium solani): 50 µg/mL (≈ 304 µM)
MIC (Pythium aphanidermatum): 12 µg/mL (≈ 73.1 µM)
MIC (Thanatephorus cucumeris): 12 µg/mL (≈ 73.1 µM)
LD50 at 192 h [22]: 256 mg/kg
growth inhibition (GI) (P388 [23]): 100%
inhibition of growth at 0.63 µg/mL (P388 [24]): 68%
inhibition of growth at 0.63 µg/mL (P388 [25]): 78%
growth inhibition (GI) (P388 [26]): 98%
growth inhibition (GI) (P388 [27]): Dose-dependent effect

CCOP(=S)(OCC)Oc1nc(Cl)c(Cl)cc1Cl [CHLORPYRIFOS]
mortality (Reticulitermes speratus [28]): 100%
mortality (Reticulitermes speratus [29]): 60%
LC50 (Reticulitermes speratus [2]): 0.00016 g/m2
mortality (Reticulitermes speratus [30]): 0%
mortality (Reticulitermes speratus [31]): 10%
mortality (Reticulitermes speratus [32]): 40%
mortality (Reticulitermes speratus [33]): 75%
mortality (Reticulitermes speratus [34]): 25%
mortality (Reticulitermes speratus [35]): 100%
mortality (Reticulitermes speratus [36]): 100%

CCN(CC)C(=O)c1cccc(C)c1 [DIETHYLTOLUAMIDE]
LC50 (Dermatophagoides farinae [1]): 0.79 g/m2
mortality (Dermatophagoides farinae [37]): 7.2%
mortality (Dermatophagoides farinae [4]): 0%
mortality (Dermatophagoides farinae [5]): 20.5%
mortality (Dermatophagoides farinae [6]): 45.5%

CC(C)c1cccc(=O)c(O)c1 [HINOKITIOL]
LC50 (Reticulitermes speratus [2]): 0.03 g/m2
mortality (Dermatophagoides farinae [38]): 2.6%
mortality (Dermatophagoides farinae [39]): 11.9%
mortality (Dermatophagoides farinae [3]): 0%
mortality (Dermatophagoides farinae [4]): 99%
mortality (Dermatophagoides farinae [6]): 100%
mortality (Reticulitermes speratus [7]): 0%
mortality (Reticulitermes speratus [8]): 0%
mortality (Reticulitermes speratus [9]): 0%
mortality (Reticulitermes speratus [10]): 0%
mortality (Reticulitermes speratus [11]): 100%
mortality (Reticulitermes speratus [12]): 13.3%
mortality (Reticulitermes speratus [13]): 100%
mortality (Reticulitermes speratus [14]): 100%
mortality (Reticulitermes speratus [15]): 100%
mortality (Reticulitermes speratus [16]): 100%
mortality (Reticulitermes speratus [17]): 100%
mortality (Reticulitermes speratus [18]): 100%
MIC (Legionella pneumophila [19]): 25 µg/mL (≈ 152 µM)
MIC (Legionella pneumophila [20]): 6.25 µg/mL (≈ 38.1 µM)
MIC [21]: 25 µg/mL (≈ 152 µM)
MIC (Colletotrichum lagenaria): 25 µg/mL (≈ 152 µM)
MIC (Phomopsis obscurans): 12 µg/mL (≈ 73.1 µM)
MIC (Botrytis cinerea): 50 µg/mL (≈ 304 µM)
MIC (Fusarium solani): 50 µg/mL (≈ 304 µM)
MIC (Pythium aphanidermatum): 12 µg/mL (≈ 73.1 µM)
MIC (Thanatephorus cucumeris): 12 µg/mL (≈ 73.1 µM)
IC50 [40]: 0.3 µg/mL (≈ 1.83 µM)
IC50 (HL-60): 0.3 µg/mL (≈ 1.83 µM)
IC50 (K562): 0.3 µg/mL (≈ 1.83 µM)
IC50 [41]: 0.3 µg/mL (≈ 1.83 µM)
IC50 [42]: 0.3 µg/mL (≈ 1.83 µM)
MIC (MDCK): 10 µg/mL (≈ 60.9 µM)
MIC (Colon 26): 10 µg/mL (≈ 60.9 µM)

O=c1cccccc1O [TROPOLONE]
IC50 [40]: 0.3 µg/mL (≈ 2.46 µM)
IC50 (HL-60): 0.3 µg/mL (≈ 2.46 µM)
IC50 (K562): 0.3 µg/mL (≈ 2.46 µM)
IC50 [41]: 0.3 µg/mL (≈ 2.46 µM)
IC50 [42]: 0.3 µg/mL (≈ 2.46 µM)

CC[C@]1(O)C[C@@H]2CN(CCc3c([nH]c4ccccc34)[C@@](C(=O)OC)(c3cc4c(cc3OC)N(C)[C@H]3[C@@](O)(C(=O)OC)[C@H](OC(C)=O)[C@]5(CC)C=CCN6CC[C@]43[C@@H]65)C2)C1 [VINBLASTINE]
inhibition of growth at 0.63 µg/mL (P388 [25]): 84%
